Some test systems named below: UACC-257; SNB-19; NCI-H226; NCI-H522; HT-29; T47D; A498; RXF 393; M14; CCRF-CEM; COLO 205; PC-3; Hs-578T; SK-MEL-5; NCI/ADR-RES; HCT-15; OVCAR-5; HOP-92; SK-MEL-28; U-251.
Assay in all cases: DTP human tumour cell line panel, 48 h

What is called GI50 is the concentration giving 50% growth inhibition.

Structures are written as SMILES.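 Grown in 96-well plates, cells were treated for 48 hours with each compound at five concentrations. Insufficient inhibition: endpoint recorded as highest concentration tested. At the GI50, growth is halved.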 Active and inactive are the calls of the source. No stated cut-off is given here; in the data, active = GI50 up to about 1.1 µM and inactive = higher. Non-standard residues stand in square brackets, D forms with d. Residues, ends and D or L forms follow the SMILES beside them. A value given as a limit tells only on which side of the number the result lay.

For the compound `Cc1cc2nc3ccc(N(C)C)cc3[s+]c2cc1N` [TOLONIUM CHLORIDE], the GI50 in the assay on UACC-257 is 1.37 µM (inactive); in the assay on SNB-19, 2.69 µM (inactive); with NCI-H226 it was 8.22 µM (inactive); in the assay on NCI-H522, 2.62 µM (inactive); with HT-29, 7.93 µM (inactive); in the assay with T47D it was 5.2 µM (inactive). The GI50 was 21.3 µM (inactive) in the assay on A498; 7.52 µM (inactive) in the assay with RXF 393; 2.24 µM (inactive) in the assay with M14; 1.16 µM (inactive) in the assay with CCRF-CEM; 2.97 µM (inactive) with COLO 205; 1.58 µM (inactive) with PC-3. The GI50 was 5.12 µM (inactive) in the assay with Hs-578T; 0.641 µM (active) with SK-MEL-5; 2.26 µM (inactive) in the assay on NCI/ADR-RES; 2.99 µM in the assay on HCT-15; 9.73 µM (inactive) with OVCAR-5; 13.4 µM (inactive) in the assay with HOP-92. For the same compound, the GI50 is 13.6 µM (inactive) in the assay on SK-MEL-28 and 3.17 µM (inactive) in the assay with U-251.

As to `O=C1NCC2(CCNCC2)N1c1ccccc1`, the GI50 with UACC-257, in the assay on SNB-19, with NCI-H226, with NCI-H522, in the assay on HT-29 and with T47D was > 100 µM (inactive) throughout. For the same compound, the GI50 in the assay with A498, with RXF 393, in the assay with M14, in the assay with CCRF-CEM, in the assay on COLO 205 and in the assay on PC-3 was > 100 µM (inactive) in each case. Further, the GI50 is > 100 µM (inactive) with Hs-578T; > 100 µM (inactive) in the assay with SK-MEL-5; > 100 µM (inactive) in the assay with NCI/ADR-RES; > 100 µM in the assay on HCT-15; > 100 µM (inactive) in the assay on OVCAR-5; > 100 µM (inactive) in the assay with HOP-92. Also, the GI50 in the assay on SK-MEL-28 and with U-251 was > 100 µM (inactive) each time.

For `CSCC[C@H](NC(=O)[C@@H](N)CC(N)=O)C(=O)N[C@@H](Cc1c[nH]c2ccccc12)C(=O)N[C@@H](CCC(N)=O)C(=O)N[C@@H](CCC(=O)O)C(=O)N[C@H](C(=O)NCC(=O)N[C@@H](CCCCN)C(=O)N[C@H](C)C(=O)O)C(C)C` (H-NMWQEVGK[dA]-OH), the GI50 with UACC-257, in the assay on SNB-19, in the assay with NCI-H226, with HT-29, with T47D and with A498 was > 100 µM (inactive) each time. For the same compound, the GI50 in the assay on RXF 393, with M14, in the assay on CCRF-CEM, in the assay on COLO 205, in the assay with PC-3 and with Hs-578T was > 100 µM (inactive) throughout. Further, the GI50 is > 100 µM (inactive) in the assay with SK-MEL-5; > 100 µM (inactive) in the assay on NCI/ADR-RES; > 100 µM in the assay with HCT-15; > 100 µM (inactive) in the assay with OVCAR-5; > 100 µM (inactive) in the assay with HOP-92; > 100 µM (inactive) with SK-MEL-28. The GI50 in the assay on U-251 was > 100 µM (inactive).

On to `[N-]=[N+]=NC1(N=[N+]=[N-])C(=O)NN=C(c2ccccc2)C1=O` (stereo not given), for which the GI50 in the assay on UACC-257 is 97.5 µM (inactive); in the assay with NCI-H226, > 100 µM (inactive); with NCI-H522, > 100 µM (inactive); with HT-29, > 100 µM (inactive); in the assay on T47D, 31.1 µM (inactive); in the assay on A498 it was > 100 µM (inactive). For the same compound, the GI50 in the assay on RXF 393 is 45.5 µM (inactive); with M14 it was > 100 µM (inactive); in the assay on CCRF-CEM, 32.2 µM (inactive); in the assay with COLO 205, > 100 µM (inactive); in the assay with PC-3 it was > 100 µM (inactive); in the assay with Hs-578T, > 100 µM (inactive). For the same compound, the GI50 was > 100 µM (inactive) in the assay on NCI/ADR-RES; > 100 µM in the assay with HCT-15; > 100 µM (inactive) with HOP-92; 16.3 µM (inactive) with SK-MEL-28; > 100 µM (inactive) in the assay with U-251.

In the case of `COc1ccc(C(C)NNC(=O)c2cc[n+]([BH2-]C#N)cc2)c(OC)c1` (stereo not given), the GI50 with UACC-257, with SNB-19, in the assay with NCI-H226, in the assay on NCI-H522, in the assay with T47D and with A498 was > 100 µM (inactive) in each case. In addition, the GI50 in the assay with RXF 393, in the assay on M14, in the assay on CCRF-CEM, with COLO 205, in the assay on PC-3 and with Hs-578T was > 100 µM (inactive) each time. The GI50 with SK-MEL-5 is > 100 µM (inactive); in the assay on NCI/ADR-RES, > 100 µM (inactive); with HCT-15 it was > 100 µM; in the assay on OVCAR-5, > 100 µM (inactive); in the assay with HOP-92, > 100 µM (inactive); in the assay on SK-MEL-28, > 100 µM (inactive). Besides, the GI50 in the assay on U-251 is > 100 µM (inactive).

Consider `Cc1cccc(C)c1NC(=O)C(=O)CC(=O)/C=C/c1ccccc1`, for which the GI50 in the assay with UACC-257, in the assay with SNB-19, in the assay with NCI-H226, with NCI-H522, with HT-29 and with T47D was > 100 µM (inactive) in each case. Moreover, the GI50 in the assay on A498, with RXF 393, in the assay on M14, in the assay with CCRF-CEM, in the assay with PC-3 and with Hs-578T was > 100 µM (inactive) in each case. Moreover, the GI50 in the assay with SK-MEL-5 is > 100 µM (inactive); in the assay with NCI/ADR-RES it was > 100 µM (inactive); in the assay with HCT-15, > 100 µM; in the assay on OVCAR-5, > 100 µM (inactive); with HOP-92 it was > 100 µM (inactive); with SK-MEL-28, > 100 µM (inactive). Besides, in the assay on U-251, the GI50 is > 100 µM (inactive).

For the compound `Nc1nc(S)nc2snnc12`, the GI50 in the assay with UACC-257, in the assay with SNB-19, in the assay with NCI-H226, with NCI-H522, with HT-29 and in the assay on T47D was > 100 µM (inactive) each time. Moreover, the GI50 in the assay on A498, in the assay on RXF 393, in the assay with CCRF-CEM, with COLO 205, in the assay on PC-3 and in the assay with Hs-578T was > 100 µM (inactive) throughout. Besides, the GI50 in the assay with SK-MEL-5 is > 100 µM (inactive); with NCI/ADR-RES it was > 100 µM (inactive); in the assay with HCT-15, > 100 µM; in the assay with OVCAR-5 it was > 100 µM (inactive); with HOP-92, > 100 µM (inactive); with SK-MEL-28 it was > 100 µM (inactive). Besides, the GI50 with U-251 was > 10 µM (inactive).

For the compound `CCCCCCCCCCCCC(O)C1CCC(C(O)CCCCCCC(O)CCCCCCCC2=CC(C)OC2=O)O1` (stereo not given), the GI50 in the assay with UACC-257 was 2.17 µM (inactive); in the assay on SNB-19, 34.4 µM (inactive); with NCI-H226, 48.2 µM (inactive); in the assay on NCI-H522, 16.5 µM (inactive); in the assay with T47D, 2.8 µM (inactive); in the assay on A498, 32.8 µM (inactive). The GI50 in the assay on RXF 393 was 22.9 µM (inactive); with M14 it was 19.2 µM (inactive); with CCRF-CEM it was 3.1 µM (inactive); in the assay with COLO 205 it was 19.7 µM (inactive); with PC-3, 31 µM (inactive); in the assay on Hs-578T, 4.4 µM (inactive). Further, the GI50 is 1.19 µM (inactive) in the assay on SK-MEL-5; 1.84 µM (inactive) in the assay on NCI/ADR-RES; 31.3 µM in the assay with HCT-15; > 10 µM (inactive) in the assay on OVCAR-5; 25.8 µM (inactive) in the assay with HOP-92; 51.9 µM (inactive) in the assay with SK-MEL-28. Further, the GI50 in the assay on U-251 is 61.9 µM (inactive).

For the compound `O=Cc1ccc2ccocc1-2`, the GI50 with UACC-257, in the assay with SNB-19, with NCI-H226, in the assay with NCI-H522, with HT-29 and in the assay with T47D was > 100 µM (inactive) in each case. Also, the GI50 in the assay on A498, with RXF 393, with M14, in the assay on CCRF-CEM, in the assay with COLO 205 and in the assay on PC-3 was > 100 µM (inactive) in each case. Also, the GI50 is > 100 µM (inactive) in the assay with Hs-578T; > 100 µM (inactive) in the assay on SK-MEL-5; > 100 µM (inactive) in the assay with NCI/ADR-RES; > 100 µM in the assay with HCT-15; > 100 µM (inactive) in the assay with OVCAR-5; > 100 µM (inactive) in the assay on HOP-92. Moreover, in the assay with U-251, the GI50 is > 100 µM (inactive).

Consider `COc1ccc(NC(=O)CC(=O)N2N=C(C)C(/N=N/c3ccc(C(=O)O)cc3)C2=O)cc1` (stereo not given), for which the GI50 in the assay with UACC-257, in the assay with SNB-19, in the assay on NCI-H522, in the assay on HT-29, with T47D and with A498 was > 100 µM (inactive) in each case. Besides, the GI50 in the assay with RXF 393, with M14, with CCRF-CEM, in the assay with COLO 205, in the assay on PC-3 and in the assay with Hs-578T was > 100 µM (inactive) in each case. For the same compound, the GI50 in the assay with SK-MEL-5 is > 100 µM (inactive); in the assay on NCI/ADR-RES, > 100 µM (inactive); with HCT-15, > 100 µM; in the assay on OVCAR-5, > 100 µM (inactive); in the assay with HOP-92, > 100 µM (inactive); in the assay on SK-MEL-28, > 100 µM (inactive). Also, the GI50 in the assay on U-251 was > 100 µM (inactive).

Values taken from ChEMBL document CHEMBL1201862, “PubChem BioAssay data set” (2004).
